According to patent publication US11787781B2, “Inhibiting ataxia telangiectasia and RAD3-related protein (ATR)” (Celator Pharmaceuticals, Inc., priority 2016, dated 2023):

Key:
SUM149 cells = test: Cell cycle stage profile, SUM149 cells; assay type: cell-based; conditions: 24 hours after addition of SN38 and ATR inhibitor
[1] = system: total and phospho-ATR (S428), phospho-CHK1 (S317 and S345) in DMS-114 cells; test: Western blot of total and phospho-ATR, phospho-CHK1 in DMS-114 cells; assay type: cell-based
Experimental: Whole cell protein lysates were generated after 1, 3, 6 and 24 hours using a 2% SDS containing cell lysis buffer and stored at −80° C. until all samples were collected and run together at the same time for the WesternBlot analysis. The following proteins and phosphoproteins of interest were detected by antibodies purchased from Cell Signaling Technology (see methods and materials part below): total and phospho-ATR (S428), phospho-CHK1 (S317 and S345), γH2AX, beta-actin.
All target and phospho-specific antibodies were purchased from Cell Signaling and/or Epitomics and were used at 1:1000 dilutions. A list of all antibodies is available in Table 6. Standard antibody based Western blot and immunohistochemistry protocols were used. Briefly, 2% SDS based cell lysis buffer was used to collect whole cell lysate for Western Blotting. Secondary antibodies and staining protocols were purchased and followed regarding LiCor Biosciences and/or BD Bioscience.
Cells were grown and treated in a 6 cm dish scale. To harvest cells, medium was removed and quickly replaced by ice cold PBS. PBS was then replaced with 250 μL of 2% SDS lysis buffer. After five minutes of incubation, the lysed cells were scraped off and loaded onto a cell lysate homogenizer microcentrifuge spin-column (QIAshredder, Qiagen, Cat.-Nr. 79656). The filtrate was then loaded onto a 0.2 μm centrifugal filter column (Nanosep MF 0.2_m, Pall, Cat.-Nr. ODM02C34). The lysates were then stored at −80° C.

pKa = assay type: physicochemical; conditions: method not stated

CN(C)CCC1CCN(CCS(=O)(=O)c2ccc(-c3cnc(N)c(C(=O)Nc4ccccc4)n3)cc2)CC1 [Compound 5, 3-amino-6-(4-((2-(4-(2-(dimethylamino)ethyl)piperidin-1-yl)ethyl)sulfonyl)phenyl)-N-phenylpyrazine-2-carboxamide]
cell cycle stage profile vs controls (SUM149 cells): larger percentage of cells are arrested in G2 phase
phosphorylation signal of CHK1 (S317 and S345) induced by Gemcitabine ([1]; ATR inhibitor 1 μM added to Gemcitabine 16 nM): abrogates the phosphorylation signal of CHK1
total and phospho-ATR signal ([1]; ATR inhibitor 1 μM, alone or with Gemcitabine 16 nM, up to 24 hrs): strongly reduced
pKa (pKa): 10
